Several values for one entry are separate records, joined by “and”; a condition that tells them apart may be missing. Identical values can stand only once. Like-named read-outs stand apart in the source and are kept apart here.
Key:
[1] = test system: human prostate cancer PC-3 cells; assay: Cell toxicity by Trypan Blue Exclusion, selenate versus selenite; conditions: 5 μM or 50 μM, 24 to 96 hours
Protocol: 5×10^3 human prostate cancer PC-3 cells were seeded in a 24-well dish and 8 hours later were treated with either 5 μM or 50 μM of selenate or selenite. The dose range of 5 μM or 50 μM is equivalent to 0.1 mg/kg to 1.25 mg/kg. Cells were harvested at 24, 48, 72 and 96 hours following the addition of selenate or selenite and the percentage of viable cells as assessed by Trypan Blue staining was determined.
All cells in the tissue culture wells were then harvested sequentially at periods between 24 and 96 hours following addition of the treatments. The percentage of viable cells were then determined using the Trypan Blue exclusion assay.

GFP-FKHR fusion protein = assay: GFP-FKHR cellular localization in transfected PC-3 cells; assay type: cell-based, human; conditions: LY294002 50 μM 1 hour; sodium selenate or selenomethionine 0.5 mM 3 hours
Protocol: The day before transfection, 5×10^5 PC-3 cells were seeded in 24-well dishes and transiently transfected with 0.8 μg of pcDNA3-GFP-FKHRwt construct (kind gift Dr Bill Sellers, Dana-Farber Institute, Boston) using Lipofectamine 2000 (Invitrogen). Cells were permeabilized in 0.2% Triton X-100 and the nuclear contents stained with DAPI. Coverslips were mounted with fluorescent mounting medium (DAKO). The cellular distribution of green fluorescence was determined in dual fluorescent cells using a Leica epifluorescent microscope.
Reintroducing PTEN function in such cells induces translocation of FKHR to the nucleus eventually causing G1 arrest in PTEN-null cells (Nakamura et al 2000, supra).

PC-3 cells [2] = test system: PC-3 cells
Protocol: Cells were allowed to grow until the indicated time points, then harvested, washed in PBS and fixed in ice cold 70% ethanol for 15 minutes. Cells were washed with PBS and resuspended in PBS containing 40 μg/mL of propidum iodide (Sigma) and […] of RNase. DNA histograms were generated for each reading and the proportion of cells present in the G1 and G2/M peaks determined. Results were obtained for three independent experiments.

PC-3 cells [3] = assay: MTT growth assay; assay type: cell-based, human
Protocol: MTT Growth Assays involved plating 1×10^3 PC-3 cells per well in a 96 well plate and allowing the cells to attach overnight. […] The controls for this experiment received an equal volume of LY294002 diluent (DMSO). MTT growth assays were then performed according to the manufacturer's protocol (Sigma).

Akt = assay: Activation of Akt by different selenium compounds in PC-3 cells, immunoblot; assay type: cell-based, human; conditions: serum starved PC-3 cells
From the text: Signal intensities from the developed films were scanned and intensities of active Akt correlated to total Akt levels were plotted.

[4] = test system: human prostate tumor cells; conditions: in comparison to organic selenomethionine, methylselenocysteine or selenized yeast; cited from earlier work
[5] = test system: prostate tumor PC-3 cells
Protocol: 1×10^6 prostate tumor PC-3 cells were injected into the prostate of nude mice. […] Paclitaxel at 10 mg/kg was administered intraperitoneally once per week in 10% Cremophor EL/25% ethanol/65% PBS solution to those animals receiving paclitaxel. 10 animals were used per group. After 5 weeks post injection, animals were sacrificed, the prostates removed, the appendages dissected off and the tumors weighed. The retroperitoneum was explored for lymphadenopathy and lymph nodes greater than 0.5 mm diameter excised. The tumors were then step sectioned at 50 micron steps and tumor volumes calculated from the digitized images using the standard volumetric formula […].

[6] = test system: cell cycle regulatory proteins (cyclin D1, cdk4, cdk6, p27KIP1, p21CIP1); assay: Immunoblot of cell cycle regulatory proteins in PC-3 cells; assay type: cell-based, human
From the text: The following antibodies were obtained from Cell Signaling Technology (Beverly, Mass., USA) unless otherwise stated: anti-p27^KIP1 (bd Pharmingen), anti-p21^CIP1 , ANTI-CYCLIN d1, ANTI-CYCLIN d3, ANTI-CDK4, ANTI-CDK6, ANTI-PHOSPHO rb (Ser807/811), anti-RB, anti-phospho Akt (Ser473), anti-phospho Akt (Thre308), anti-Akt, anti-phospho PDK1 (Ser241), anti-phospho PDK1 (Tyr373/376), anti-phospho GSK-3β, anti-phospho mTOR (Ser2448), anti-mTOR, anti-βIII tubulin (Promega).
To determine the effect of selenate on the phosphorylation of proteins involved in the PI3K/Akt signaling cascade, 5×10^5 PC-3 cells were allowed to attach for 10 hours. […] Cells were lysed in ELB (250 mM NaCl, 50 mM HEPES pH 7.0, 5 mM EDTA, 0.5 mM DTT, 0.2% TX100, 20 mM sodium fluoride, 2 mM sodium pervanadate, Complete Protease Inhibitor Cocktail (Roche)). Lysates were centrifuged for 15 minutes at 4° C. Protein concentration was determined using the BCA system (Sigma) and equal amounts of protein were loaded into each lane of a SDS-polyacrylamide gel. The proteins were transferred onto PVDF (Millipore) membranes and detected with anti-mouse or anti-rabbit secondary antibodies couples to horseradish peroxidase (HRP) and chemiluminescence using the SuperSignal West Dura (Pierce). Membranes were stripped using the Restore Western Blot Stripping Buffer (Pierce).

O=[Se](=O)(O)O [sodium selenate]
cytotoxic effect (Trypan Blue exclusion) [1]: not cytotoxic
percentages of viable cells [1]: equivalent to the control untreated samples
relocalization of GFP-FKHR from the cytoplasm to the nucleus (GFP-FKHR fusion protein): marked relocalization
percentage of the cell population in G1 (PC-3 cells [2]; 0.25 and 0.5 mM, 24 hours, control 55%): 69-70%
percentage of PC-3 cells at G2/M phase (PC-3 cells [2]; 48 hours): decreased
percentage of the cell population in G1 (PC-3 cells [2]; 48 hours, dose- and time-dependent): increased
percentage of cells at G2/M phase (PC-3 cells [2]; increasing concentrations (0.25, 0.5 mM), 24 hours, control 28%): 19% and 24%
PC-3 cell proliferation (MTT proliferative index) (PC-3 cells [3]; 0.25 and 0.5 mM, 72 hour): markedly reduced
proliferative inhibition with added LY294002 (PC-3 cells [3]; high dose sodium selenate plus LY294002, 72 hours): not enhanced by LY294002
PC-3 cell number (MTT) (PC-3 cells [3]; lowest dose 0.01 mM): slight, but reproducible boost in cell number
activation of Akt (phosphorylated Akt relative to total Akt) (Akt; 125 μM, 6 hours): inhibits activation of Akt
activation of Akt at high dose (Akt; 500 μM, 1 hour): inhibited activation of Akt
tumor progression [4]: significantly reduces tumor progression
prostate tumor weights ([5]; 5 ppm selenium in drinking water and/or paclitaxel 10 mg/kg intraperitoneally once per week, 5 weeks, control received Cremophor/ethanol carrier): not reduced compared to the control
microvessel density in the tumors ([5]; selenate alone, 5 ppm in drinking water): greater effect on reducing microvessel density in the tumors than on tumor volumes
p27KIP1 total protein levels, inorganic versus organic selenium ([6]; 0.5 mM, compared to control (0 hours), FIG. 3C): markedly boosted
expression levels of cyclin D1 ([6]; 0.5 mM, from the 14 hour time period): dropped significantly
cdk4 levels ([6]; 0.5 mM, out to 24 hours): peaked at 6 hours and declined in time dependent manner to 24 hours
p21CIP1 levels ([6]; 0.5 mM, peaking at 6 hours): marked increase
p27KIP1 levels ([6]; 0.5 mM, time-dependent till 24 hours): increased
cdk6 levels ([6]; high dose (0.5 mM)): remained relatively unchanged

From patent US20080081039A1, “Inorganic Selenium For Treatment Of Cancer” (priority 2004, published 2008)
